The test system of series [1] is activated leukocytes. The following applies: topical application; cited from earlier work.
In series [2] the test system is DRG neurons co-cultured with fibrosarcoma cells. The following applies: cited from earlier work.
The conditions of series [3]: in vivo; cited from earlier work.
Series [4] deals with mice and rats. The following applies: cited from earlier work; for sensory abnormalities caused by carrageenan injection, ultraviolet B-radiation or CCI: mice and rats.
In series [5] the test system is formalin-injected mice. Briefly: Formalin-induced chronic pain-like state (CPLS): persistent hypersensitivity to heat and mechanical stimuli. The following applies: for pain chronification (contralateral hyperalgesia): GW7647 10 mg-kg^−1 IP, post-procedural day 2-4; for conversion to CPLS (contralateral hyperalgesia, PFD14): maximally effective dosages on PFD2-4: gabapentin 50 mg-kg^−1 IP, morphine 10 mg-kg^−1 subcutaneous, ketamine 4 mg-kg^−1 IP, ketoprofen 100 mg-kg^−1 IP, WT mice, formalin; for alleviation of the hypersensitive state (contralateral hyperalgesia): mouse, in vivo. The series is classed as in vivo, mouse.

Series [6] has as its system fibrosarcoma-bearing mice. The following applies: cited from earlier work.
For series [7], the system named is PEA levels in diseased tissues of CCI and tumor-bearing mice. The following applies: cited from earlier work.
Series [8] concerns naïve animals. Put plainly: Baseline nociceptive thresholds in naïve animals. The following applies: ARN19702 30 mg-kg^−1 IP, ARN16186 10 mg-kg^−1 IP. In kind it is in vivo, mouse.
The test system of series [9] is formalin-injected mice. Put plainly: Formalin-induced paw edema. In kind it is in vivo, mouse. The following applies: pretreatment; ARN16186 10 mg-kg^−1 IP, ARN19702 30 mg-kg^−1 IP; wild-type mice, 1% formalin. On the procedure:
Paw edema was measured with a digital caliper (Fisher Scientific, USA) and is expressed as the difference (A paw thickness, mm) between ipsilateral and contralateral paws.

Series [10] concerns formalin-injected mice. Briefly: Formalin test: acute nocifensive behavior. The following applies: pretreatment; ARN16186 10 mg-kg^−1 IP, ARN19702 30 mg-kg^−1 IP; wild-type mice, 1% formalin.
Series [11] has as its system spinal-cord transcription. Put plainly: RNA sequencing and metabolomic analysis of L4-L6 spinal cord. In kind it is in vivo, mouse. The following applies: GW7647, post-injury. On the procedure: RNA sequencing and bioinformatics analysis: We extracted total RNA with the RNeasy Mini Kit (Qiagen). Samples with RNA integrity number ≥8.5 were kept for library construction. cDNA synthesis, amplification, library construction, and sequencing were performed at Novogene (Bejing, China) using the Illumina NovaSeq platform with paired-end 150 bp (PE 150) sequencing strategy. Downstream analysis was performed using a combination of programs including STAR, HTseq, Cufflink and Novogene's wrapped scripts. Alignments were parsed using the STAR program and differential expressions were determined using DESeq2/edgeR. Gene Ontology (GO) and Kyoto Encyclopedia of Genes and Genomes (KEGG) enrichment were implemented using the ClusterProfiler.
Metabolomic analysis: Metabolomics analyses were performed at the West Coast Metabolomics Center of the University of California Davis, as described^55. Briefly, frozen lumbar spinal cord (L4-L6) fragments (˜5 mg) were homogenized in Eppendorf tubes (2 ml) for 2 min using metal spheres ([…] diameter) in a MM300 mill (Retsch, Germany). A mixture of isopropanol/acetonitrile/water (3/3/2, vol) was added to the grounded tissue (1 ml per 20 mg), stirred for 10 s and shaken at 4° C. for 5 min. […]

Series [12] addresses T1, PPAR-α (Homo sapiens, UniProt Q07869).
T1 sequence (Q07869 1-468): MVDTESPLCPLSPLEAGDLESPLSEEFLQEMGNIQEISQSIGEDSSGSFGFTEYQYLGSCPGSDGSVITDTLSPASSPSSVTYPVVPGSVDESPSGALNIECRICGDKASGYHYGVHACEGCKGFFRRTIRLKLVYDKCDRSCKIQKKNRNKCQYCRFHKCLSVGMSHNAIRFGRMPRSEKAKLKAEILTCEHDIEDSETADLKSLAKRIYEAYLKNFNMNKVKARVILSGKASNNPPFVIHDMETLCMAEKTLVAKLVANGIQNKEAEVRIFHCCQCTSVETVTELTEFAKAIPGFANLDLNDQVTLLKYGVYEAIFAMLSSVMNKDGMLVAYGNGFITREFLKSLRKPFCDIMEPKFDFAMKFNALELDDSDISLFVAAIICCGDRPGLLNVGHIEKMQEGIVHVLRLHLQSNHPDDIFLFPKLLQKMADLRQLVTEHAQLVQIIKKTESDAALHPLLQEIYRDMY
Conditions: activation of PPAR-α by exogenous PEA; cited from earlier work.

The test system of series [13] is naïve mice. Put plainly: Capsaicin-evoked nocifensive behavior. In kind it is in vivo, mouse.
Method: Capsaicin: Capsaicin or its vehicle was injected into the plantar surface of the left hind paw (20 μl) or left forepaw (10 μl), i.e. contralaterally to the formalin injection site. Nocifensive behavior was videorecorded for 10 min and evaluated under blinded conditions.
The test system of series [14] is rodents. Conditions: male (but not female) rodents; cited from earlier work.
The subject of series [15] is macrophages. The following applies: cited from earlier work.
For series [16], the system named is male rat model of type-1 diabetes. The following applies: cited from earlier work.

Entries after “also recorded” stand apart in the source; their conditions may differ.

As to `O=C(CCc1ccccc1)N[C@H]1COC1=O` [(S)-OOPP], in series [1], the “PEA levels in activated leukocytes” value is listed as “reinstates normal” and the “inflammatory responses induced by carrageenan or endotoxin” value is “blunts”.
Consider `C[C@@H]1OC(=O)[C@@H]1NC(=O)OCCCCCc1ccccc1` [ARN077], for which the calcium signaling entry in series [2] was “rapidly normalizes”. Moreover, the “crossing of the blood-brain barrier” value in series [3] is recorded as “cannot cross; also recorded: does not cross”. Further, the “sensory abnormalities caused by carrageenan injection, ultraviolet B-radiation or CCI” value in series [4] is recorded as “corrects”. The “persistent hypersensitivity (CPLS) elicited by formalin” value in series [5] (post-injury intrathecal infusion, 30 ng, 5 μL, at PFD2 and PFD4, assessed PFD14) was “stopped”. For the same compound, the mechanical hypersensitivity entry in series [6] was “reduces”. In addition, the “PEA levels in diseased tissues” value in [7] is on record as “restores baseline”.
As to `CCCCc1ccc(OC2C[C@H]3CC[C@@H](C2)N3S(=O)(=O)c2c(C)n[nH]c2C)cc1` (some centres unmarked) [ARN16186], the baseline nociceptive thresholds result in series [8] is on record as “Neither compound affected”. The “paw edema (PFD14)” value in series [9] was “prevents”. The “protective effects of ARN19702 against CPLS (contralateral hyperalgesia)” value in [5] (ARN16186 10 mg-kg^−1 IP once daily PFD1 to PFD3, male mice) is reported as “mimicked”. Moreover, in series [5] (pretreatment of wild-type mice, ARN19702 30 mg-kg^−1 IP, ARN16186 10 mg-kg^−1 IP), the “NAAA-null phenotype (weakened nocifensive response, no inflammation or persistent hypersensitivity after formalin)” value is reported as “recapitulated”. Also, the “persistent contralateral hyperalgesia (PFD14)” value in series [5] (pretreatment, ARN16186 10 mg-kg^−1 IP, ARN19702 30 mg-kg^−1 IP, wild-type mice, 1% formalin) is on record as “prevents”. The “nocifensive response to formalin” value in [10] is recorded as “prevents”.
As for `CCC(=O)NC[C@H](Cc1ccc(OCCc2nc(-c3ccccc3)oc2C)cc1)N/C(C)=C\C(=O)c1ccc(C(F)(F)F)cc1` [GW6471], in [4] (rats), the “effects of ARN077 on sensory abnormalities in the presence of the PPAR-α antagonist” value is on record as “prevented”. Further, the “loss of the ARN19702 effect on transition to CPLS” value in series [5] (wild-type animals pretreated with GW6471 4 mg-kg^−1 IP, 15 min prior to ARN19702) is reported as “replicated”.
For `CC(C)(Sc1ccc(CCN(CCCCC2CCCCC2)C(=O)NC2CCCCC2)cc1)C(=O)O` [GW7647], the “pain chronification (contralateral hyperalgesia)” value in series [5] (NAAA-overexpressing mice treated with 0.1% formalin) and in series [5] (wild-type mice treated with 1% formalin) was “stopped” in each case. Also, in [11], the “injury-associated changes in spinal-cord transcription” value is reported as “prevented”.
Take `CCCCCCCCCCCCCCCC(=O)NCCO` [PEA, palmitoylethanolamide]: in series [4], the “sensory abnormalities caused by carrageenan injection, ultraviolet B-radiation or CCI” value is listed as “mimicked”. For the same compound, in series [12], the inflammation result is listed as “attenuates”, the mitochondrial respiration entry is “stimulates” and the pain result was “attenuates”. For the same compound, the CPLS entry in series [5] (on PFD2-4, PEA 30 mg-kg^−1 subcutaneous, fenofibrate 100 mg-kg^−1 IP) is “blocked”.
For `NC(=O)c1cccc(-c2cccc(OC(=O)NC3CCCCC3)c2)c1` [URB597], the “emergence of formalin-induced CPLS (contralateral hyperalgesia and allodynia)” value in series [5] (URB597 3 mg-kg^−1 IP once daily from PFD3 to PFD5, male mice) was “prevents the emergence”.
Regarding `COc1cc(CNC(=O)CCCC/C=C/C(C)C)ccc1O` [capsaicin], the “median effective dose (ED50), nocifensive response” value in series [13] (forepaw CPS injection, formalin-naïve mice) is around 0.1 µg. For the same compound, the “half-maximal dose, nocifensive response” value in series [13] (intraplantar hind paw injection) is 0.1 µg.
Consider `NCC1(CC(=O)O)CCCCC1` [gabapentin], for which, in series [5], the “conversion to CPLS (contralateral hyperalgesia, PFD14)” value (“conversion to CPLS” below) was “not mimicked; also recorded: failed to stop; also recorded: do not prevent; also recorded: fail to prevent” and the “alleviation of the hypersensitive state (contralateral hyperalgesia)” value is given as “only temporarily alleviated”.
Regarding `CNC1(c2ccccc2Cl)CCCCC1=O` (centres unmarked) [ketamine], in [5], the “conversion to CPLS” value is “not mimicked; also recorded: failed to stop; also recorded: do not prevent; also recorded: fail to prevent”.
Turning to `CC(C(=O)O)c1cccc(C(=O)c2ccccc2)c1` (centres unmarked) [ketoprofen], in series [5], the “conversion to CPLS” value is given as “not mimicked; also recorded: failed to stop; also recorded: do not prevent; also recorded: fail to prevent”.
For the compound `CN(C)C(=N)N=C(N)N` [metformin], in [14], the neuropathic pain result is on record as “prevents”. Besides, in series [15], the “macrophage phenotype shift toward glycolysis / trained immunity” value is “stopped”. Further, the “therapeutic efficacy in painful peripheral neuropathy” value in [16] is “may exhibit therapeutic efficacy”.
For the compound `CN1CC[C@]23c4c5ccc(O)c4O[C@H]2[C@@H](O)C=C[C@H]3[C@H]1C5` [morphine], in series [5], the “alleviation of the hypersensitive state (contralateral hyperalgesia)” value is given as “only temporarily alleviated”.

The values are drawn from patent US20240252486A1, “ALGOSTATIC AGENTS FOR PREVENTING TRANSITION FROM ACUTE TO CHRONIC PAIN” (The Regents of the University of California, priority 2021, published 2024).
